According to publication doi:10.1101/203372v2 (biorxiv, 2017):

Biological target: T1, GST-HDAC6, human, recombinant (recombinant HDAC6 WT) (Homo sapiens, UniProt Q9UBN7)
T1 sequence (Q9UBN7 1-1215): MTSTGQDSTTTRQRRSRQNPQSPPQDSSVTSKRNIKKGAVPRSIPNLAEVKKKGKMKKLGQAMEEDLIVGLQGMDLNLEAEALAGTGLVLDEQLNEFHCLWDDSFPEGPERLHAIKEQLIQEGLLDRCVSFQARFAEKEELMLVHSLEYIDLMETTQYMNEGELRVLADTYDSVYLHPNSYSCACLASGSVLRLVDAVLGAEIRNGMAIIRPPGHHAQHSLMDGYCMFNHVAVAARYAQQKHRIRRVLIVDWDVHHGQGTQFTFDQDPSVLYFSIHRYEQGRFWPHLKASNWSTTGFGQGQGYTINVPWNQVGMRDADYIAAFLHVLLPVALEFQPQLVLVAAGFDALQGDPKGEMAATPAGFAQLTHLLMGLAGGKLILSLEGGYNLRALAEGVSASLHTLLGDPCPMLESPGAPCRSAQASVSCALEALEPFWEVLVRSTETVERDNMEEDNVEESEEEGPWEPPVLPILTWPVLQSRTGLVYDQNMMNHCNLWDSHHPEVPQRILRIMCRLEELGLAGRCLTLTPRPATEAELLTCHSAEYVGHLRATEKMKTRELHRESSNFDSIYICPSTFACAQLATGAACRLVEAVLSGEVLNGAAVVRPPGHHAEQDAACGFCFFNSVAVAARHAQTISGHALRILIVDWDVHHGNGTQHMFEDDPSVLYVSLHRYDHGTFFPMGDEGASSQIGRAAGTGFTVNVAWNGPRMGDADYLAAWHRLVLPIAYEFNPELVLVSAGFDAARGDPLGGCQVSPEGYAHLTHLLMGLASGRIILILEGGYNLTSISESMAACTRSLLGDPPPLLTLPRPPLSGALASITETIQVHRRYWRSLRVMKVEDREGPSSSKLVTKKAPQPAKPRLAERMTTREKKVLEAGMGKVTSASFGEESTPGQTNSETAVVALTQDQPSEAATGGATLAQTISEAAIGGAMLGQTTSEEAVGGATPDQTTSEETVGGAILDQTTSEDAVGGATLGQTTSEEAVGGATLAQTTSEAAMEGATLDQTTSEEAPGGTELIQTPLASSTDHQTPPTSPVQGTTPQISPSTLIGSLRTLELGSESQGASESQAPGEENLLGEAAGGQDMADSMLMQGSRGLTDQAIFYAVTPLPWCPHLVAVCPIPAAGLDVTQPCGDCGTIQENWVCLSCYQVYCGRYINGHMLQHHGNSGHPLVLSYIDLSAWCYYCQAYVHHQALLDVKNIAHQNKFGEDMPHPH
Test: ELISA PPI competition, HDAC6 binding to immobilised His6-ubiquitin

`Cc1ccccc1OCCCn1cc(C=C2C(=N)N3N=CSC3=NC2=O)c2ccccc21` [compound 16] was tested, and the IC50 was 78 µM.
